# Experimental data as given in patent publication US7829723B2, “Polymorphic forms of (S)-1-cyanobutan-2-yl (S)-1-(3-3-(3-methoxy-4-(oxazol-5-yl)phenyl)uriedo)phenyl)ethylcarbamate” (Vertex Pharmaceuticals Incorporated, priority 2005, dated 2010).
# Assays:
# [1] = Solubility of Compound 1 at room temperature in various solvents and solvent mixtures; assay type: physicochemical
# [2] = Solubility of Compound 1 at elevated temperatures in various solvents; assay type: physicochemical; conditions: organic solvent or mixture
compound,measurement,setting,value
"CC[C@@H](CC#N)OC(=O)N[C@@H](C)c1cccc(NC(=O)Nc2ccc(-c3cnco3)c(OC)c2)c1 [Compound 1, (S)-1-cyanobutan-2-yl (S)-1-(3-(3-(3-methoxy-4-(oxazol-5-yl)phenyl)ureido)phenyl)ethylcarbamate]",solubility,"[1]; aqueous with cosolvent or surfactant or cyclodextrin, solvent Acetone:H2O 20:80",< 8.9 mg/mL
same,solubility,"[1]; organic solvent or mixture, solvent 2-Butanone (MEK)",10.5 mg/mL
same,solubility,"[1]; organic solvent or mixture, solvent Acetone",11 mg/mL
same,solubility,"[1]; organic solvent or mixture, solvent Acetonitrile",1.6 mg/mL
same,solubility,"[1]; organic solvent or mixture, solvent EtOH",1.6 mg/mL
same,solubility,"[1]; organic solvent or mixture, solvent THF",35 mg/mL
same,solubility,"[2]; solvent Acetone, 40° C.",61 mg/mL
same,solubility,"[2]; solvent Acetone, Boiling point (56° C.)",67 mg/mL
same,solubility,"[2]; solvent MeOH, 40° C.",33 mg/mL
same,solubility,"[2]; solvent MeOH, 50° C.",36 mg/mL
same,solubility,"[2]; solvent MeOH, Boiling point (65° C.)",92 mg/mL
same,solubility,"[2]; solvent THF, 40° C.",75 mg/mL
same,solubility,"[2]; solvent THF, Boiling point (65° C.)",115 mg/mL
same,solubility,"[2]; solvent Toluene, 50° C.",< 2.3 mg/mL
same,solubility,"[2]; solvent t-Butyl methyl ether (MTBE), 45° C.",< 10.4 mg/mL
